Experimental data published in US8334286B2, “Substituted pyrrolo[1,2-A] pyrazines, compositions containing these, processes of making these, and uses thereof” (Neurotune AG, priority 2008, dated 2012).

Columns and labels:
[1] = tested on: paclitaxel-induced hyperalgesia; assay: Paclitaxel-induced hyperalgesia in the rat (paw-pressure test); format: in vivo; conditions: PCT-treated rats, mean ± S.E.M.; for Mechanical threshold (g), After Treatment 15 min: 15 min after treatment; for Mechanical threshold (g), After Treatment 30 min: 30 min after treatment; for Mechanical threshold (g), After Treatment 45 min: 45 min after treatment
Procedure: In all methods, paw mechanical sensitivity was determined using either the paw pressure test or the incapacitance test. The paw pressure test utilizes a Randall & Selitto apparatus, exerting a force that increases at constant rate (32 g/s). The stimulus at which rats withdrawn the paw was evaluated before and at different times after treatment. Results represent the mean of mechanical thresholds expressed as grams. To avoid any possible damage to the animal paw the maximum applied force was fixed at 240 g. Peripheral neuropathy is induced by repeated administration of vincristine, paclitaxel or oxaliplatin to adult male Sprague-Dawley rats (150-200 g, supplier Harlan). The following protocols were used respectively: • Vincristine: the drug was injected by intravenous route at the dose of 150 μg/kg. The treatment was performed every 2 days, for 5 times, until a cumulative dose of 750 μg/kg was reached. Paw pressure test was performed 4 days after the last injection (Marchand F. et al. 2003, Brain Res. 980:117-120). • Paclitaxel: paclitaxel (PCT) neuropathy was induced by intraperitoneal administration of 0.5 mg/kg once a day, on days 1, 3, 5 and 8. Cumulative paclitaxel dose was 2 mg/kg. The pharmacological test was performed 14-18 days after the last paclitaxel injection (Polomano R. C. et al. 2001, Pain 94:293-304). • Oxaliplatin: 2.4 mg/kg were injected by intraperitoneal route for 5 consecutive days followed by 2 days suspension (one cicle). A total of 3 cycles was performed, reaching a cumulative dose of 36 mg/kg (Cavaletti G. 2001, Eur. J. Cancer 37:2457-2463). The test was performed 48 h after the last oxaliplatin injection. 2. Osteoarthritic Pain

MIA-induced hyperalgesia [2] = assay: MIA-induced hyperalgesia in the rat (paw-pressure test), osteoarthritic pain; format: in vivo; conditions: MIA-treated rats, mean ± S.E.M.; for Mechanical threshold (g), After Treatment 15 min / Mechanical threshold (g), After Treatment 30 min / Mechanical threshold (g), After Treatment 45 min: 3 mg/kg i.v.; for Mechanical threshold (g), After Treatment 15 min: 15 min after treatment; for Mechanical threshold (g), After Treatment 30 min: 30 min after treatment; for Mechanical threshold (g), After Treatment 45 min: 45 min after treatment; for Mechanical threshold (g), Before Treatment basal: group 3 mg/kg i.v.
Procedure: In all methods, paw mechanical sensitivity was determined using either the paw pressure test or the incapacitance test. The paw pressure test utilizes a Randall & Selitto apparatus, exerting a force that increases at constant rate (32 g/s). The stimulus at which rats withdrawn the paw was evaluated before and at different times after treatment. Results represent the mean of mechanical thresholds expressed as grams. To avoid any possible damage to the animal paw the maximum applied force was fixed at 240 g. Osteoarthritis was induced by a single administration of 2 mg (in a volume of 25 μl) of monosodium iodoacetate (MIA) into the left knee joint of anaesthetized rats (male adult Sprague Dawley rats, 150-200 g, supplier Harlan) (Fernihough J. 2004, Pain 112:83-93). This treatment induces the progressive degeneration of the joint and the development of hyperalgesia, mimicking at the histological and behavioral levels what observed in humans. Pharmacological test was performed 7 days after treatment.

MIA-induced hyperalgesia [3] = assay: MIA-induced hyperalgesia in the rat (incapacitance test), osteoarthritic pain; format: in vivo; conditions: MIA-treated rats, grams of the right paw, mean ± S.E.M.
Procedure: In all methods, paw mechanical sensitivity was determined using either the paw pressure test or the incapacitance test. […] Osteoarthritis was induced by a single administration of 2 mg (in a volume of 25 μl) of monosodium iodoacetate (MIA) into the left knee joint of anaesthetized rats (male adult Sprague Dawley rats, 150-200 g, supplier Harlan) (Fernihough J. 2004, Pain 112:83-93). This treatment induces the progressive degeneration of the joint and the development of hyperalgesia, mimicking at the histological and behavioral levels what observed in humans. Pharmacological test was performed 7 days after treatment.

[4] = 3 mg/kg i.v., 15 min after treatment
[5] = 3 mg/kg i.v., 30 min after treatment
[6] = 3 mg/kg i.v., 45 min after treatment
[7] = before treatment (basal), group 3 mg/kg i.v.

Row | SMILES | melting point [°C] | Mechanical threshold (g), After Treatment 15 min ([1]; 3 mg/kg i.v.) [g] | Mechanical threshold (g), After Treatment 30 min ([1]; 3 mg/kg i.v.) [g] | Mechanical threshold (g), After Treatment 45 min ([1]; 3 mg/kg i.v.) [g] | further results
1 | O=C1CC[C@@H]2CN(S(=O)(=O)c3cccc(F)c3)CCN12 [Example 4, (R)-(+)2-(3-fluorophenylsulfonyl)hexahydro pyrrolo[1,2-a]pyrazin-6(7H)-one] | 179 to 180 | 51.1 ± 2.4 | 55.8 ± 2.4 | 47.3 ± 2.9 | Mechanical threshold (g), After Treatment 15 min (MIA-induced hyperalgesia [2]): 41.4 ± 3.1 g; Mechanical threshold (g), After Treatment 30 min (MIA-induced hyperalgesia [2]): 53.0 ± 3.5 g; Mechanical threshold (g), After Treatment 45 min (MIA-induced hyperalgesia [2]): 42.6 ± 3.2 g; Mechanical threshold (g), Before Treatment basal (MIA-induced hyperalgesia [2]): 23.1 ± 2.5 g; Weight borne on right hind paw (MIA-induced hyperalgesia [3]; [4]): 90.1 ± 8.2 g; Weight borne on right hind paw (MIA-induced hyperalgesia [3]; [5]): 96.2 ± 7.5 g; Weight borne on right hind paw (MIA-induced hyperalgesia [3]; [6]): 72.5 ± 7.2 g; Weight borne on right hind paw (MIA-induced hyperalgesia [3]; [7]): 41.4 ± 5.8 g
2 | O=C1CC[C@@H]2CN(S(=O)(=O)c3ccc(C(F)(F)F)cc3)CCN12 [Example 10, (R)-(+)-2-(4-(trifluoromethyl)phenylsulfonyl) hexahydropyrrolo [1,2-a]pyrazin-6(7H)-one] | 226 to 227 |  |  |  | 
3 | O=C1CC[C@H]2CN(S(=O)(=O)c3ccccc3F)CCN12 [Example 1, (S)-(−)2-(2-fluorophenylsulfonyl)hexahydro pyrrolo[1,2-a]pyrazin-6(7H)-one] | 142 to 144 |  |  |  | 
4 | Cc1ccccc1S(=O)(=O)N1CCN2C(=O)CC[C@@H]2C1 [Example 6, (R)-(+)-2-(o-tolylsulfonyl)hexahydro pyrrolo[1,2-a]pyrazin-6(7H)-one] | 68 to 70 | 49.4 ± 3.0 | 48.8 ± 2.8 | 40.7 ± 2.2 | 
5 | O=C1CC[C@@H]2CN(S(=O)(=O)c3ccccc3F)CCN12 [Example 3, (R)-(+)2-(2-fluorophenylsulfonyl)hexahydro pyrrolo[1,2-a]pyrazin-6(7H)-one] | 136 to 137 | 45.6 ± 3.9 | 53.3 ± 2.7 | 46.2 ± 3.3 | Mechanical threshold (g), After Treatment 15 min (MIA-induced hyperalgesia [2]): 61.3 ± 3.0 g; Mechanical threshold (g), After Treatment 30 min (MIA-induced hyperalgesia [2]): 58.1 ± 3.7 g; Mechanical threshold (g), After Treatment 45 min (MIA-induced hyperalgesia [2]): 49.2 ± 4.1 g; Mechanical threshold (g), Before Treatment basal (MIA-induced hyperalgesia [2]): 21.9 ± 1.9 g; Weight borne on right hind paw (MIA-induced hyperalgesia [3]; [4]): 106.9 ± 7.3 g; Weight borne on right hind paw (MIA-induced hyperalgesia [3]; [5]): 112.1 ± 8.5 g; Weight borne on right hind paw (MIA-induced hyperalgesia [3]; [6]): 81.8 ± 6.6 g; Weight borne on right hind paw (MIA-induced hyperalgesia [3]; [7]): 41.8 ± 6.0 g
6 | Cc1cccc(S(=O)(=O)N2CCN3C(=O)CC[C@@H]3C2)c1 [Example 7, (R)-(+)-2-(m-tolylsulfonyl)hexahydro pyrrolo[1,2-a]pyrazin-6(7H)-one] | 133 to 134 | 38.7 ± 2.2 | 47.6 ± 2.4 | 36.4 ± 2.5 | 
7 | O=C(c1ccccc1F)N1CCN2C(=O)CC[C@H]2C1 [Example 18, (S)-2-(2-fluorobenzoyl) hexahydropyrrolo [1,2-a]pyrazin-6(7H)-one] | 123 to 124 |  |  |  | 
8 | N#Cc1ccccc1S(=O)(=O)N1CCN2C(=O)CC[C@@H]2C1 [Example 11, (R)-2-(6-oxohexahydropyrrolo[1,2-a]pyrazin-2(1H)-ylsulfonyl) benzonitrile] | 198 to 199 | 45.3 ± 1.6 | 50.7 ± 2.3 | 48.4 ± 2.7 | 
9 | N#Cc1ccc(S(=O)(=O)N2CCN3C(=O)CC[C@@H]3C2)cc1 [Example 13, (R)-(+)-4-(6-oxohexahydropyrrolo[1,2-a]pyrazin-2(1H)-ylsulfonyl) benzonitrile] | 242 to 243 |  |  |  | Mechanical threshold (g), After Treatment 15 min ([1]; 1 mg/kg i.v.): 35.6 ± 3.1 g; Mechanical threshold (g), After Treatment 30 min ([1]; 1 mg/kg i.v.): 39.7 ± 2.4 g; Mechanical threshold (g), After Treatment 45 min ([1]; 1 mg/kg i.v.): 34.8 ± 3.3 g
10 | N#Cc1cccc(S(=O)(=O)N2CCN3C(=O)CC[C@@H]3C2)c1 [Example 12, (R)-3-(6-oxohexahydropyrrolo[1,2-a]pyrazin-2(1H)-ylsulfonyl) benzonitrile] | 180 to 181 | 39.8 ± 3.7 | 41.5 ± 3.8 | 39.2 ± 4.4 | 
11 | O=C1CC[C@@H]2CN(S(=O)(=O)c3cccnc3)CCN12 [Example 16, (R)-2-(pyridin-3-ylsulfonyl)hexahydro pyrrolo[1,2-a]pyrazin-6(7H)-one] | 165 to 166 |  |  |  | 
12 | O=C(c1cccc(F)c1)N1CCN2C(=O)CC[C@@H]2C1 [Example 21, (R)-2-(3-fluorobenzoyl) hexahydropyrrolo [1,2-a]pyrazin-6(7H)-one] | 161 to 162 | 40.9 ± 3.5 | 46.2 ± 4.3 | 37.6 ± 4.3 | 
13 | Cc1ccc(N2CCN3C(=O)CCC3C2=O)cc1 (centres unmarked) [Example 24, 2-p-Tolyl-tetrahydro-pyrrolo[1,2-a]pyrazine-1,6-dione] | 115 to 117 | 42.2 ± 2.6 | 43.4 ± 4.1 | 36.5 ± 4.2 | 

The next lines start with results.

Row | melting point [°C] | SMILES | Mechanical threshold (g), After Treatment 15 min ([1]; 3 mg/kg i.v.) [g] | Mechanical threshold (g), After Treatment 30 min ([1]; 3 mg/kg i.v.) [g] | Mechanical threshold (g), After Treatment 45 min ([1]; 3 mg/kg i.v.) [g] | further results
14 | 177 to 179 | O=C1CC[C@H]2CN(S(=O)(=O)c3cccc(F)c3)CCN12 [Example 2, (S)-(−)2-(3-fluorophenylsulfonyl)hexahydro pyrrolo[1,2-a]pyrazin-6(7H)-one] |  |  |  | 
15 | 208 to 209 | O=C1CC[C@@H]2CN(S(=O)(=O)c3ccc(F)c(F)c3)CCN12 [Example 5, (R)-(+)-2-(3,4-difluorophenylsulfonyl)hexahydro pyrrolo[1,2-a]pyrazin-6(7H)-one] |  |  |  | 
16 | 172 to 174 | O=C1CC[C@@H]2CN(S(=O)(=O)c3cccc(C(F)(F)F)c3)CCN12 [Example 9, (R)-(+)-2-(3-(tifluoromethyl)phenylsulfonyl) hexahydropyrrolo [1,2-a]pyrazin-6(7H)-one] | 41.6 ± 3.6 | 44.5 ± 2.8 | 42.9 ± 4.3 | 
17 | 161 to 162 | O=C(c1cccc(F)c1)N1CCN2C(=O)CC[C@H]2C1 [Example 19, (S)-2-(3-fluorobenzoyl) hexahydropyrrolo [1,2-a]pyrazin-6(7H)-one] |  |  |  | 
18 | 144 to 145 | COc1cccc(S(=O)(=O)N2CCN3C(=O)CC[C@@H]3C2)c1 [Example 15, (R)-2-(3-methoxyphenylsulfonyl)hexahydro pyrrolo[1,2-a]pyrazin-6(7H)-one] |  |  |  | 
19 | 123 to 124 | O=C(c1ccccc1F)N1CCN2C(=O)CC[C@@H]2C1 [Example 20, (R)-2-(2-fluorobenzoyl) hexahydropyrrolo [1,2-a]pyrazin-6(7H)-one] | 41.4 ± 2.3 | 45.7 ± 3.5 | 35.8 ± 3.0 | 
